Measurements from patent US20240208961A1, “EIF4E INHIBITORS AND USES THEREOF” (PIC Therapeutics, Inc., priority 2022, published 2024).
Values joined by “and” are separate entries in the source; they are usually repeats but may differ in a detail not shown here. Identical values can stand only once. Like-named read-outs stand apart in the source and are kept apart here.

What was measured:
[1] = tested on: MM.1S; experiment: Cell viability assay, suspension cell line, 5 day Alamar Blue (Example 8): MM.1S; type: cell-based; conditions: Homo sapiens, MM1.S, 120 h, Multiple Myeloma (Steroid Sensitive) Cancer Cell
[2] = tested on: LoVo; experiment: Cell viability assay, adherent cell line, 5 day Alamar Blue (Example 8): LoVo; type: cell-based; conditions: Homo sapiens, 120 h, Colorectal Cancer Cell Viability
[3] = Pharmacokinetic studies of certain compounds in female Balb/c mice (Example 5); type: in vivo; conditions: for concentration at 0.083 h / concentration at 0.25 h / concentration at 0.5 hr / concentration at 1 hr / concentration at 2 hr / concentration at 4 hr / concentration at 8 hr / concentration at 24 hr / concentration at 0.5 h / concentration at 1 h / concentration at 2 h / concentration at 4 h / concentration at 8 h / concentration at 24 h: female, Balb/c
In short: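 Female Balb/c mice (N=9) were fasted overnight and given compound PO as a suspension in 1% CMC/0.2% Tween 80 or IV in 5% DMSO/5% Solutol HS15/90% saline. Facial-vein plasma was taken from 0.083 to 24 h and assayed by LC-MS. Parameters are non-compartmental, and F was based on AUCINF or AUClast.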

[4] = mouse, plasma, I-27 PO 30 mg/kg

Q: Which IC50 [1] does the source give for `CC(C)Cc1sc(Nc2ncc(-c3cccs3)cc2C(=O)O)nc1C1(C)CCCCC1` [Compound I-27] here?
A: 1 to 8 µM

Q: And the IC50 [2]?
A: ≤ 1 µM

Q: What about the “Plasma concentration Individual” value ([3]; I-27 IV 1 mg/kg, 0.083 hr, 1 mg/kg) of the same compound?
A: 4810 ng/mL and 5030 ng/mL

Q: And the “Plasma concentration Individual” value ([3]; I-27 IV 1 mg/kg, 0.25 hr, 1 mg/kg)?
A: 1300 ng/mL and 1270 ng/mL

Q: What about the “Plasma concentration Individual” value ([3]; I-27 IV 1 mg/kg, 0.5 hr, 1 mg/kg) of the same compound?
A: 584 ng/mL and 448 ng/mL

Q: What about the “Plasma concentration Individual” value ([3]; I-27 IV 1 mg/kg, 1 hr, 1 mg/kg) of the same compound?
A: 393 ng/mL and 335 ng/mL

Q: What about the “Plasma concentration Individual” value ([3]; I-27 IV 1 mg/kg, 2 hr, 1 mg/kg) of the same compound?
A: 213 ng/mL and 163 ng/mL

Q: And the “Plasma concentration Individual” value ([3]; I-27 IV 1 mg/kg, 4 hr, 1 mg/kg)?
A: 31.7 ng/mL and 29.9 ng/mL

Q: And the “Plasma concentration Individual” value ([3]; I-27 IV 1 mg/kg, 8 hr, 1 mg/kg)?
A: 5.02 ng/mL and 8.89 ng/mL

Q: And the “Plasma concentration Individual” value ([3]; I-27 IV 1 mg/kg, 24 hr, BQL = below quantifiable limit of 1.00 ng/mL, 1 mg/kg)?
A: BQL

Q: What about the F ([3]; I-27 PO 30 mg/kg vs IV 1 mg/kg) of the same compound?
A: 27.4%

Q: And the “Plasma concentration Individual” value ([3]; I-27 PO 30 mg/kg, 0.083 hr, 30 mg/kg)?
A: 80.4 ng/mL and 62.5 ng/mL

Q: And the “Plasma concentration Individual” value ([3]; I-27 PO 30 mg/kg, 0.25 hr, 30 mg/kg)?
A: 368 ng/mL and 587 ng/mL

Q: What about the “Plasma concentration Individual” value ([3]; I-27 PO 30 mg/kg, 0.5 hr, 30 mg/kg) of the same compound?
A: 1590 ng/mL and 1270 ng/mL

Q: And the “Plasma concentration Individual” value ([3]; I-27 PO 30 mg/kg, 1 hr, 30 mg/kg)?
A: 2120 ng/mL and 2090 ng/mL

Q: And the “Plasma concentration Individual” value ([3]; I-27 PO 30 mg/kg, 2 hr, 30 mg/kg)?
A: 2860 ng/mL and 1950 ng/mL

Q: And the “Plasma concentration Individual” value ([3]; I-27 PO 30 mg/kg, 4 hr, 30 mg/kg)?
A: 2160 ng/mL and 1760 ng/mL

Q: And the “Plasma concentration Individual” value ([3]; I-27 PO 30 mg/kg, 8 hr, 30 mg/kg)?
A: 715 ng/mL and 493 ng/mL

Q: What about the “Plasma concentration Individual” value ([3]; I-27 PO 30 mg/kg, 24 hr, 30 mg/kg) of the same compound?
A: 11.0 ng/mL and 10.1 ng/mL

Q: What about the concentration at 0.083 h ([3]; mouse, plasma, iv, 1 mg/kg, I-27 IV 1 mg/kg, 0.083 hr, read-out: Plasma concentration Individual) of the same compound?
A: 4410 ng/mL

Q: And the concentration at 0.083 h ([3]; mouse, plasma, iv, 1 mg/kg, I-27 IV 1 mg/kg, 0.083 hr, read-out: Plasma concentration Mean)?
A: 4750 ng/mL

Q: And the concentration at 0.25 h ([3]; mouse, plasma, iv, 1 mg/kg, I-27 IV 1 mg/kg, 0.25 hr, read-out: Plasma concentration Individual)?
A: 865 ng/mL

Q: And the concentration at 0.25 h ([3]; mouse, plasma, iv, 1 mg/kg, I-27 IV 1 mg/kg, 0.25 hr, read-out: Plasma concentration Mean)?
A: 1140 ng/mL

Q: And the concentration at 0.5 hr ([3]; mouse, plasma, iv, 1 mg/kg, I-27 IV 1 mg/kg, 0.5 hr, read-out: Plasma concentration Individual)?
A: 638 ng/mL

Q: And the concentration at 0.5 hr ([3]; mouse, plasma, iv, 1 mg/kg, I-27 IV 1 mg/kg, 0.5 hr, read-out: Plasma concentration Mean)?
A: 557 ng/mL

Q: And the concentration at 1 hr ([3]; mouse, plasma, iv, 1 mg/kg, I-27 IV 1 mg/kg, 1 hr, read-out: Plasma concentration Individual)?
A: 341 ng/mL

Q: And the concentration at 1 hr ([3]; mouse, plasma, iv, 1 mg/kg, I-27 IV 1 mg/kg, 1 hr, read-out: Plasma concentration Mean)?
A: 356 ng/mL

Q: What about the concentration at 2 hr ([3]; mouse, plasma, iv, 1 mg/kg, I-27 IV 1 mg/kg, 2 hr, read-out: Plasma concentration Individual) of the same compound?
A: 142 ng/mL

Q: What about the concentration at 2 hr ([3]; mouse, plasma, iv, 1 mg/kg, I-27 IV 1 mg/kg, 2 hr, read-out: Plasma concentration Mean) of the same compound?
A: 173 ng/mL

Q: And the concentration at 4 hr ([3]; mouse, plasma, iv, 1 mg/kg, I-27 IV 1 mg/kg, 4 hr, read-out: Plasma concentration Individual)?
A: 55.9 ng/mL

Q: What about the concentration at 4 hr ([3]; mouse, plasma, iv, 1 mg/kg, I-27 IV 1 mg/kg, 4 hr, read-out: Plasma concentration Mean) of the same compound?
A: 39.2 ng/mL

Q: And the concentration at 8 hr ([3]; mouse, plasma, iv, 1 mg/kg, I-27 IV 1 mg/kg, 8 hr, read-out: Plasma concentration Individual)?
A: 7.46 ng/mL

Q: What about the concentration at 8 hr ([3]; mouse, plasma, iv, 1 mg/kg, I-27 IV 1 mg/kg, 8 hr, read-out: Plasma concentration Mean) of the same compound?
A: 7.12 ng/mL

Q: And the concentration at 24 hr ([3]; mouse, plasma, iv, 1 mg/kg, I-27 IV 1 mg/kg, 24 hr, BQL = below quantifiable limit of 1.00 ng/mL, read-out: Plasma concentration Individual)?
A: 1.09 ng/mL

Q: What about the concentration at 24 hr ([3]; mouse, plasma, iv, 1 mg/kg, I-27 IV 1 mg/kg, 24 hr, BQL = below quantifiable limit of 1.00 ng/mL, read-out: Plasma concentration Mean) of the same compound?
A: 1.09 ng/mL

Q: What about the concentration at 0.083 h ([3]; mouse, plasma, po, 30 mg/kg, I-27 PO 30 mg/kg, 0.083 hr, read-out: Plasma concentration Individual) of the same compound?
A: 40.5 ng/mL

Q: What about the concentration at 0.083 h ([3]; mouse, plasma, po, 30 mg/kg, I-27 PO 30 mg/kg, 0.083 hr, read-out: Plasma concentration Mean) of the same compound?
A: 61.1 ng/mL

Q: And the concentration at 0.25 h ([3]; mouse, plasma, po, 30 mg/kg, I-27 PO 30 mg/kg, 0.25 hr, read-out: Plasma concentration Individual)?
A: 448 ng/mL

Q: And the concentration at 0.25 h ([3]; mouse, plasma, po, 30 mg/kg, I-27 PO 30 mg/kg, 0.25 hr, read-out: Plasma concentration Mean)?
A: 468 ng/mL

Q: And the concentration at 0.5 h ([3]; mouse, plasma, po, 30 mg/kg, I-27 PO 30 mg/kg, 0.5 hr, read-out: Plasma concentration Individual)?
A: 2080 ng/mL

Q: What about the concentration at 0.5 h ([3]; mouse, plasma, po, 30 mg/kg, I-27 PO 30 mg/kg, 0.5 hr, read-out: Plasma concentration Mean) of the same compound?
A: 1650 ng/mL

Q: And the concentration at 1 h ([3]; mouse, plasma, po, 30 mg/kg, I-27 PO 30 mg/kg, 1 hr, read-out: Plasma concentration Individual)?
A: 1930 ng/mL

Q: And the concentration at 1 h ([3]; mouse, plasma, po, 30 mg/kg, I-27 PO 30 mg/kg, 1 hr, read-out: Plasma concentration Mean)?
A: 2050 ng/mL

Q: What about the concentration at 2 h ([3]; mouse, plasma, po, 30 mg/kg, I-27 PO 30 mg/kg, 2 hr, read-out: Plasma concentration Individual) of the same compound?
A: 2040 ng/mL

Q: And the concentration at 2 h ([3]; mouse, plasma, po, 30 mg/kg, I-27 PO 30 mg/kg, 2 hr, read-out: Plasma concentration Mean)?
A: 2280 ng/mL

Q: And the concentration at 4 h ([3]; mouse, plasma, po, 30 mg/kg, I-27 PO 30 mg/kg, 4 hr, read-out: Plasma concentration Individual)?
A: 2050 ng/mL

Q: What about the concentration at 4 h ([3]; mouse, plasma, po, 30 mg/kg, I-27 PO 30 mg/kg, 4 hr, read-out: Plasma concentration Mean) of the same compound?
A: 1990 ng/mL

Q: And the concentration at 8 h ([3]; mouse, plasma, po, 30 mg/kg, I-27 PO 30 mg/kg, 8 hr, read-out: Plasma concentration Individual)?
A: 613 ng/mL

Q: And the concentration at 8 h ([3]; mouse, plasma, po, 30 mg/kg, I-27 PO 30 mg/kg, 8 hr, read-out: Plasma concentration Mean)?
A: 607 ng/mL

Q: What about the concentration at 24 h ([3]; mouse, plasma, po, 30 mg/kg, I-27 PO 30 mg/kg, 24 hr, read-out: Plasma concentration Individual) of the same compound?
A: 14.2 ng/mL

Q: What about the concentration at 24 h ([3]; mouse, plasma, po, 30 mg/kg, I-27 PO 30 mg/kg, 24 hr, read-out: Plasma concentration Mean) of the same compound?
A: 11.8 ng/mL

Q: And the AUC(0-inf) ([3]; mouse, plasma, I-27 IV 1 mg/kg)?
A: 2170 ng·h/mL

Q: And the AUC(0-t) ([3]; mouse, plasma, I-27 IV 1 mg/kg)?
A: 2160 ng·h/mL

Q: What about the C0 ([3]; mouse, plasma, I-27 IV 1 mg/kg) of the same compound?
A: 9630 ng/mL

Q: What about the MRT inf ([3]; mouse, plasma, I-27 IV 1 mg/kg) of the same compound?
A: 1.13 h

Q: And the MRT last ([3]; mouse, plasma, I-27 IV 1 mg/kg)?
A: 1.04 h

Q: What about the clearance ([3]; mouse, plasma, I-27 IV 1 mg/kg) of the same compound?
A: 7.68 mL/min/kg

Q: What about the half-life ([3]; mouse, plasma, I-27 IV 1 mg/kg) of the same compound?
A: 4.29 h

Q: What about the Vd ([3]; mouse, plasma, I-27 IV 1 mg/kg, read-out: Vss) of the same compound?
A: 0.52 L/kg

Q: And the AUC(0-inf) [3, 4]?
A: 17900 ng·h/mL

Q: And the AUC(0-t) [3, 4]?
A: 17800 ng·h/mL

Q: And the Cmax [3, 4]?
A: 2280 ng/mL

Q: What about the MRT inf [3, 4] of the same compound?
A: 4.74 h

Q: And the MRT last [3, 4]?
A: 4.68 h

Q: What about the Tmax [3, 4] of the same compound?
A: 2 h

Q: What about the half-life [3, 4] of the same compound?
A: 2.73 h
